Laboratory results reported in patent publication US7687079B2, “Methods of treating ileus” (priority 2002, dated 2010).

Assays:
COX-2 mRNA = COX-2 mRNA expression in muscularis of transplanted grafts (real time RT-PCR); type: in vivo, rat; conditions: CO-treated SITx rats, 4 hours after reperfusion
Procedure: The effects of inhalation of CO on transplant-induced pro-inflammatory and anti-inflammatory gene expression was assessed in muscularis extracts by RT-PCR. Muscularis extemae was collected from normal intestine and transplanted grafts 4 hours postoperatively and snap frozen in liquid nitrogen. This time point falls within the range of maximum inflammatory mediator expression that occurs between 3 and 6 hours following abdominal incision. Total RNA extraction was performed using the guanidium-thiocyanate phenol-chloroform extraction method as described previously (Eskandari et al., Am. J. Clin. Pathol. 75(3):367-370 (1997)). RNA pellets were resuspended in RNA-secure resuspension solution (Ambion Inc., Austin, Tex.), followed by removal of potentially contaminating DNA by treatment with DNase I (DNA-Free Kit, Ambion Inc., Austin, Tex.). Equal aliquots (5 μg) of total RNA from each sample were quantified by spectrophotometry (wavelength […]) and aliquoted at a concentration of 40 ng/μl. Peak mRNA expression was quantified in duplicate by SYBR Green two-step, real-time RT-PCR. […] Real-time PCR data were plotted as the ΔRn, fluorescence signal versus the cycle number. […] Quantification of mRNA expression was normalized to GAPDH and calculated relative to control using the comparative CT method (Schmittgen et al., J. Biochem. Biophys. Methods 46(1-2):69-8 (2000)). […]

IL-1β mRNA = IL-1β mRNA in muscularis after IM (real time RT-PCR); type: in vivo, mouse; conditions: IM + CO vs IM, 6 hr
Procedure: Pro- and anti-inflammatory gene expression was determined by real time RT-PCR. The small intestinal muscularis externa was collected at 4 time points (3, 6, 12, and 24 hr) postoperatively and snap frozen in liquid nitrogen. Total RNA extraction was performed using the guanidium-thiocyanate phenol-chloroform extraction method as described in Eskandari et al. (Id.) RNA pellets were resuspended in RNA-secure resuspension solution (Ambion Inc., Austin, Tex.), followed by removal of potential contaminating DNA by treatment with DNase I (DNA-Free Kit, Ambion Inc., Austin, Tex.). Equal aliquots (5 μg) of total RNA from each sample were quantified by spectrophotometry (wavelength […]). Peak mRNA expression was quantified in duplicate by SYBR Green two-step, real-time RT-PCR. β-actin was used as the endogenous reference. […] Real-time PCR data were plotted as the ΔRn fluorescence signal versus the cycle number. […] Quantification of mRNA expression was normalized to β-actin and calculated relative to control using the comparative CT method.
(§1) To exclude PCR amplification of contaminating genomic DNA, RT-negative controls (samples containing RNA which was not reverse transcribed) were included in each PCR reaction. […] PCR amplification efficiency of each target cDNA was measured by determining the colinearity of serial dilutions. […]

iNOS mRNA = iNOS mRNA in muscularis after IM (real time RT-PCR); type: in vivo, mouse; conditions: for iNOS expression, fold increase: naive mice
Procedure: Pro- and anti-inflammatory gene expression was determined by real time RT-PCR. The small intestinal muscularis externa was collected at 4 time points (3, 6, 12, and 24 hr) postoperatively and snap frozen in liquid nitrogen. Total RNA extraction was performed using the guanidium-thiocyanate phenol-chloroform extraction method as described in Eskandari et al. (Id.) RNA pellets were resuspended in RNA-secure resuspension solution (Ambion Inc., Austin, Tex.), followed by removal of potential contaminating DNA by treatment with DNase I (DNA-Free Kit, Ambion Inc., Austin, Tex.). Equal aliquots (5 μg) of total RNA from each sample were quantified by spectrophotometry (wavelength […]). Peak mRNA expression was quantified in duplicate by SYBR Green two-step, real-time RT-PCR. β-actin was used as the endogenous reference. Aliquoted RNA (40 ng) was subjected to first-strand complementary DNA (cDNA) synthesis using random hexamers (PE applied Biosystems, Foster City, Calif.) and Super Script II (Life Technologies, Rockville, Md.). Primers were taken from the literature or designed according to published sequences (Table 3). PCR reaction mixture was prepared using SYBR Green PCR Core Reagents (PE Applied Biosystems). Each sample was estimated in duplicate using the conditions recommended by the manufacturer. Real-time PCR data were plotted as the ΔRn fluorescence signal versus the cycle number. An arbitrary threshold was set to the midlinear portion of the log ΔRn cycle plot. The threshold cycle (CT) is defined as the cycle number at which the ΔRn, crosses this threshold. Quantification of mRNA expression was normalized to β-actin and calculated relative to control using the comparative CT method.
as §1, with “reaction. Melting curve analyses were performed for each reaction to ensure amplification of specific product.” for “reaction.”

SMILES: [C-]#[O+] [CO, carbon monoxide]
- reduction of mean relative COX-2 mRNA expression (COX-2 mRNA): approximately 50%
- peak IL-1β mRNA expression (IL-1β mRNA): significantly inhibited
- iNOS expression (iNOS mRNA; naive mice exposed to CO): no effect
- iNOS expression, fold increase (iNOS mRNA; CO 3 hr): 1.04±0.19 fold
- iNOS expression, fold increase (iNOS mRNA; CO 6 hr): 1.26±0.19 fold
